Laboratory results taken from USRE43712E1, “Methods for assaying for antidepressant therapy markers” (The Board of Trustees of the Uniersity of Illinois, priority 2000, dated 2012).
Marks after values point to notes of the source that are not given here.

Key:
Assay type in all cases: cell-based
Gsα [1] = test: Sequential detergent extraction (Triton X-100 / Triton X-114) of Gsα from C6-2B glioma membranes; conditions: C6-2B cells; for GsαL in Remainder, % of corresponding value in control group / GsαL in Triton X-100 extract, % of corresponding value in control group / GsαL in Triton X-114 extract, % of corresponding value in control group / GsαS in Remainder, % of corresponding value in control group / GsαS in Triton X-100 extract, % of corresponding value in control group / GsαS in Triton X-114 extract, % of corresponding value in control group: mean ± SEM of 4-5 experiments
Description: (§1) C6-2B cells (between passages 20 and 40) were grown in 175-cm^2 flasks in Dulbecco's modified Eagle medium, 4.5 g of glucose/L, 10% bovine serum, in a 10% CO2 atmosphere, at 37° C. for 3 days after splitting. […] Male Sprague-Dawley rats weighing 150-200 g were fed ad libitum and maintained in a 12-h light/dark cycle. […] 36:803-838, 1989]. […] Rat cerebral cortex membranes were prepared according to the method of Rasenick et al. [Nature, 294:560-562; 1981].
Membrane proteins were extracted sequentially from C6-2B or rat synaptic membranes as described [Yan et al., J. Neurochem., 66:1489-1495; 1996]. These membranes were stirred on ice in HEPES (15 mM, pH 7.4) containing 1% Triton X-100 for 60 min followed by centrifugation at 100,000 g for 60 min at 4° C. The supernatant was reserved (Triton X-100 extract), and the resulting pellet was resuspended in Tris (15 mM, pH 7.4) containing 1.4% Triton X-114 and 150 mM NaCl. The solution was stirred for 60 min at 4° C. and centrifuged for 30 min at 100,000 g in the cold. The supernatant was saved (Triton X-114 extract). These supernatants and remaining pellet (remainder) were subjected to sodium dodecyl sulfate (SDS)-polyacrylamide gel electophoresis (PAGE) using 10% gels. All of the extraction buffers contained 1 mM PMSF and 1 mM EGTA.
(§2) Rat cortex membrane, C6-2B cell membranes, or Triton extracts of each membrane preparation were subjected to SDS-PAGE followed by electrotransfer to polyvinylidene difluoride (PVDF) membrane. The PVDF membrane was incubated with a phosphate-buffered saline/Tween 20 Buffer (140 mM NaCl, […]. 0.1% Tween 20, pH 7.4) and 3% bovine serum albumin. The membrane was then incubated with polyclonal rabbit antisera against the various G protein subunits [RM (Gsα) or 116 (Gi1, Gi2, Gi3α)] at a 1:25,000 (RM) or 1:5,000 (116) dilution (see below for source of antibodies). […] Immunoreactivity was detected with an enhanced chemiluminescence (ECL) western blot detection system (Amersham) in accord with the manufacturer's instructions. The developed autoradiographs were analyzed by densitometry.
A membrane-enriched fraction was prepared (see Example 1), and membrane proteins were extracted sequentially with Triton X-100 (Tx 100) and Triton X-114 (Tx 114). Equal amounts of these extracts were subjected to SDS-PAGE and transferred to PVDF membrane. The long and short forms of Gsα (GsαL and GsαS) from different fractions were identified by immunodetection.
Experiments were conducted according to the method set forth in Example 1 to assess the effects of different antidepressants on the detergent extraction of Gsα from C6-2B glioma cells.
The ratios of the percentage of Gsα extracted by the two detergents in the treatment versus control groups were compared and are set forth in Table 2 as percentage of control (i.e., each Triton X-100 extract was compared with the untreated Triton X-100 extract; the same was done for Triton X-114 extracts as well as the remainder).

Gsα [2] = test: Content of G protein (Gsα) in C6-2B glioma membranes after antidepressant treatment, quantitative immunoblot
Description: as §1, §2
Purified recombinant GsαL (long form of Gsα; 1-10 ng/lane) was subjected to SDS-PAGE and transferred to PVDF membranes. The blots were incubated with antibody against Gsα (RM) and processed by ECL. Films were analyzed on a Molecular Dynamics densitometer, and the volume of each band was quantified and used to make a standard curve.
Experiments were conducted to determine whether Gsα is quantitatively altered by antidepressant therapy. For quantification of Gsα in C6-2B membrane, a standard curve was created using purified recombinant […]. Pure Gsα (1-20 ng/well) was subjected to SDS-PAGE and transferred to a PVDF membrane, Gsα was immunodetected by antisera against the as subunit of G protein.
To estimate the effect of antidepressant treatment on the amount of Gsα in C6-2B membranes, equal amounts (10 μg) of C6-2B glioma membrane proteins in control and chronically (3 days) antidepressant-treated groups were subjected to SDS-PAGE. Gsα was immunodetected by antisera against the αs subunit of G protein.

Gsα [3] = test: Cellular localization of Gsα in C6-2B cells, immunofluorescence laser scanning confocal microscopy; conditions: 10 μM, 3 days
Description: C6-2B cells (between passages 30 and 50) were plated onto coverslips and allowed to attach overnight in Dulbecco's modified Eagle's medium. 4.5 g/l glucose, 10% bovine serum, and 100 μg/ml penicillin and streptomycin at 37° C. in a humidified 10% CO2 atmosphere. […] Therefore, the latter treatment paradigm was used in these experiments because it was easier to maintain the cell cultures for 3 days. […] The culture media and drug were changed daily. […] After the treatment duration, the cells were incubated in drug-free media for 45 to 60 minutes before fixation.
After treatment, cells were washed once with phosphate-buffered saline (PBS, […] NaCl, 2.6 mM KCl, 5.4 mM NaαPO4 7H2O, pH 7.4) and fixed with ice-cold methanol for 10 minutes. Cells were then washed three times with PBS followed by 2 h of blocking in 5% normal goat serum/0.2% fish skin gelatin in PBS. Primary antibody was added for 1.5 h, Gsα/RM1 (PerkinElmer Life Sciences, Boston, Mass.) 1:50 and Goα (Santa Cruz Biotechnology, Santa Cruz, Calif.) 2 μg/ml, followed by three washes with PBS. Oregon Green-labeled secondary antibody (Molecular Probes, Eugene, Oreg.) was added at a concentration of 8 μg/ml for 1 h followed by three PBS washes. The coverslips were mounted onto slides with Vectashield (Vector Laboratories. Burlingame, Calif.) containing diamidino-2-phenylindole as a mounting medium. Images were acquired using a Zeiss LSM510 laser-scanning confocal microscope (Carl Zeiss Inc., Thornwood, N.Y.). A single 488-nm beam from an argon/krypton laser was used for excitation of the Oregon Green. Differential interference contrast images were also acquired. Five experiments were performed and coverslips were examined. Approximately 2100 cells from control and desipramine-treated coverslips were counted by two investigators blind to the experimental conditions over the course of the five experiments.
The cellular distribution of Gsα was quantified in confocal imaged C6-2B cells using NIH-Image software (http://rsbinfonihpov/nih-image) as describe previously [Southwell et al., Cell Tissue Res., 292:37-45, 1998; Jenkinson et al., Br. J. Pharmacol., 126:131-136, 1999]. Images of 9×1 μm optical, planar sections taken from four randomly selected control and four randomly selected desipramine-treated cells were captured and the middle five sections from each cell were quantified. Total cellular Gsα fluorescence was measured by counting the number of pixels with intensity above threshold (determined by minimum intensity above background in this case 50 pixels). The areas of intensity were numbered and divided visually into those localized to the cell body and those localized to the processes and process tips. The total from each region was divided by the total cell pixel intensity and expressed as a percentage of the total. This was done for each section of each cell and the sections were averaged per cell to give an average percentage total per cell.
In a separate investigation, seven sets of 300 cells each from control group and desipramine-treated cells from five experiments were counted to determine the primary localization (processes and process tips or cell body) of Gsα within these cells. The majority of the cells stained positively for Gsα throughout the entire cell, but there was usually an enhancement in one of these regions. […] The counts are expressed as the ratio of process and process tip localization/cell body localization.
Studies were conducted to determine whether a shift in cellular localization of Gsα occurred in C6-2B cells subjected to antidepressants.
Twenty-one hundred cells from each group (control versus desipramine-treated) over a series of five experiments were examined to quantify the extent of the antidepressant effect. […] Abnormal cells or those not displaying processes were not included in the cell count. Cells (300-450) were counted per experiment and the ratio of category A cells to category B cells for each group is shown in FIG. 8. […]

Gsα [4] = test: Gsα in Triton-insoluble, caveolin-enriched versus Triton-soluble fraction of C6-2B cells (sucrose density gradient, immunoblot); conditions: chronic treatment, FIG. 3C
Description: as §2

[5] = C6-2B membranes, 10 μM drug for 3 days, mean ± SEM of 4-5 experiments

| SMILES | GsαL in the Triton X-114 fraction versus control group (Gsα [1]; 10 μM, 3 days, FIG. 1) | GsαL in Remainder, % of corresponding value in control group (Gsα [1]; 10 μM, 3 days) [%] | GsαL in Triton X-100 extract, % of corresponding value in control group (Gsα [1]; 10 μM, 3 days) | GsαL in Triton X-114 extract, % of corresponding value in control group (Gsα [1]; 10 μM, 3 days) | GsαS in Remainder, % of corresponding value in control group (Gsα [1]; 10 μM, 3 days) | GsαS in Triton X-100 extract, % of corresponding value in control group (Gsα [1]; 10 μM, 3 days) | GsαS in Triton X-114 extract, % of corresponding value in control group (Gsα [1]; 10 μM, 3 days) [%] | Quantity of G proteins in membrane, treated versus control (Gsα [2]; C6-2B cells, 10 μM, 3 days, p>0.05) | G protein amount, Total (Gsα [2]; [5]) | G protein amount, αsL (Gsα [2]; [5]) | G protein amount, αsS (Gsα [2]; [5]) | Shift of Gsα to the less hydrophobic Triton X-100 fraction (Gsα [1]) | Gsα immunofluorescence in cell processes and process tips (Gsα [3]) | Cells displaying intense Gsα staining at the process tips (and processes) (Gsα [3]; control 64%) [%] | Decrease of the amount of Gsα in the caveolin-enriched Triton-insoluble fraction, normalized to equal caveolin (Gsα [4]) |
| --- | --- | --- | --- | --- | --- | --- | --- | --- | --- | --- | --- | --- | --- | --- | --- |
| CN(C)CCC=C1c2ccccc2CCc2ccccc21 [Amitriptyline, amitriptyline] | significantly lower | 83.4 ± 14.5 | 120.3 ± 3.7^b % | 84.5 ± 0.8^b % | 82.6 ± 5.1^a % | 140.3 ± 9.3^b % | 92.7 ± 3.8 | no significant differences | 13.10 ± 0.34 ng/10 ug of membrane protein | 8.13 ± 0.17 ng/10 ug of membrane protein | 4.98 ± 0.21 ng/10 ug of membrane protein | – | – | – | – |
| CN(C)CCCN1c2ccccc2Sc2ccc(Cl)cc21 [Chlorpromazine, chlorpromazine] | – | 83.8 ± 22.0 | 107.4 ± 8.3% | 105.7 ± 6.5% | 100.4 ± 31.6% | 113.4 ± 10.7% | 102.2 ± 15.6 | – | – | – | – | did not exert these effects | uniform distribution of Gsα similar to control | 68 | no more than 25% |
| CC(N)Cc1ccccc1 (stereo not shown) [amphetamine] | – | – | – | – | – | – | – | – | – | – | – | without effect | – | – | – |
